Entries after “also recorded” stand apart in the source; their conditions may differ.
What was measured:
[1] = target: FKBP-like binding domains with a F36V mutation (Homo sapiens, UniProt P62942, F37V); conditions: cells engineered to express FKBP-like binding domain fusion proteins; cited from earlier work
[2] = system: T-cells transduced with inducible CAR with modified FKBP12 domains; test: AP1903-inducible CD19 CAR: signalling of transduced T-cells challenged with CD19 negative or positive targets; type: cell-based
Source text: FIG. 11—AP1903 homodimerizer inducible CAR. (a) AP1903 homodimerizer inducible CAR was constructed by using modified FKBP12 domains to constitute the heterodimerization motifs for both the antigen recognition component and the signalling component. The antigen recognition component recognizes CD19. (b) T-cells expressing this CAR along with non-transduced T-cells were stained with anti-Fc which recognizes the CAR spacer. The transduced T-cells expressed the CAR well. (c) Transduced T-cells were next challenged with increasing concentration of CID dimerizer AP1903 and challenged with either CD19 negative or CD19 positive target cells.
AP1903 is a synthetic chemical inducer of dimerization which binds to two mutated FKB12 domains (Clackson et al (1998). Proc. Natl. Acad. Sci. U.S.A 95, 10437-10442). An inducible CAR was developed based on this system, using the modified FKBP12 domains to constitute the heterodimerization domain of both the antigen recognition component and signalling component in the framework as described in Example 1 with the antigen recognition domain and the signalling domain co-expressed with a FMD-2A like sequence (FIG. 11a and SEQ ID No. 24). The FKBP12 domains were codon-wobbled to prevent homologous recombination. T-cells were transduced with this construct and challenged with target cells which were CD19 negative or positive.

[3] = system: T-cells transduced with split CD19 CAR with EcR and RXR heterodimerization motifs; test: RSL1-inducible CD19 CAR: IL-2 release of transduced T-cells challenged with CD19 negative or positive targets; type: cell-based; conditions: CD19 negative or CD19 positive target cells; increasing concentration of RSL1
Source text: FIG. 10—RSL1 inducible CAR (a) an RSL1 inducible CAR was constructed by using retinoic acid receptor domains and ecodysone receptor domains to constitute the heterodimerization motifs for the antigen recognition component and the signalling component respectively. The antigen recognition component recognizes CD19. (b) T-cells expressing this CAR along with non-transduced T-cells were stained with anti-Fc which recognizes the CAR spacer. The transduced T-cells expressed the CAR well. (c) Transduced T-cells were next challenged with increasing concentration of RSL1 and challenged with either CD19 negative or CD19 positive target cells.
Signaling through the signaling component may be determined by a variety of methods known in the art. […] Functional readouts, such as clonal expansion of T cells, upregulation of activation markers on the cell surface, differentiation into effector cells and induction of cytotoxicity or cytokine secretion may also be utilised. As an illustration, in the present examples the inventors determined levels of interleukin-2 (IL-2) produced by T-cells expressing a receptor component and signalling component of the CAR signalling system according to the present invention upon binding of antigen to the receptor component in the presence of varying concentrations of CID. […]

Chain of FKBP-like binding domains with a F36V mutation (P62942 2-108 F37V): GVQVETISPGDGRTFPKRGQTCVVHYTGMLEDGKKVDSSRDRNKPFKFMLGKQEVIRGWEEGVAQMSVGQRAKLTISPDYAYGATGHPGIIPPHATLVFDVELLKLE

CC[C@H](C(=O)N1CCCC[C@H]1C(=O)O[C@H](CCc1ccc(OC)c(OC)c1)c1cccc(OCC(=O)NCCNC(=O)COc2cccc([C@@H](CCc3ccc(OC)c(OC)c3)OC(=O)[C@@H]3CCCCN3C(=O)[C@@H](CC)c3cc(OC)c(OC)c(OC)c3)c2)c1)c1cc(OC)c(OC)c(OC)c1 [AP1903]
Selectivity of dimerization: FKBP-like (F36V) domains versus endogenous FKBP [1]: no interactions involving endogenous FKBP | Response / signalling of AP1903-inducible CAR T-cells ([2]; CD19 negative or CD19 positive target cells, increasing concentration of AP1903): responded only to CD19 positive targets in the presence of AP1903; also recorded: signal only in the presence of CID | Signalling of AP1903-inducible CAR T-cells at very high dimerizer concentration ([2]; very high concentration of dimerizer, CD19 positive targets): signalling was inhibited; also recorded: signalling is reduced

CCc1c(OC)cccc1C(=O)NN(C(=O)c1cc(C)cc(C)c1)C(C)(C)C [RSL1, N-(2-ethyl-3-methoxybenzoyl)-N′-(3,5-dimethylbenzoyl)-N′-tert-butylhydrazine]
IL-2 release / signalling of RSL1-inducible CAR T-cells [3]: Only CAR T-cells challenged with SupT1 targets in the presence of RSL1 released IL-2; also recorded: signal only in the presence of RSL1

Source: patent US10588967B2, “Chimeric antigen receptor (CAR) signalling system” (UCL BUSINESS PLC, priority 2014, dated 2020)
